Data published in PubChem BioAssay AID1259411 (Chemical Carcinogenesis Research Information System (CCRIS), 2018).
Active and inactive are the calls of the source. No rule for the calls is given here.

Tested on: rodent carcinogenicity bioassays, tumor incidence
Assay: CCRIS carcinogenicity studies
Outline: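 Archive of carcinogenicity, mutagenicity, tumor promotion and tumor inhibition results drawn from journals, NCI reports and other sources, expert-reviewed; covers 1985-2011 and is no longer updated.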

ClCOCCl
carcinogen call (Species: HUMAN, Route: INHALATION, Tumor Site: Type of Lesion: LUNG: OAT CELL CARCINOMA): active; positive
carcinogen call (Species: MOUSE, Strain/Sex: ICR/FEMALE, Route: DERMAL, Tumor Site: Type of Lesion: INTEGUMENTARY SYSTEM (SKIN): PAPILLOMA, SQUAMOUS CELL CARCINOMA): active; positive
carcinogen call (Species: MOUSE, Strain/Sex: ICR/MALE,FEMALE, Route: SUBCUTANEOUS, Dose: 12.5 µL/KG IN PEANUT OIL ONCE, Tumor Site: Type of Lesion: LUNG: ADENOMA): active; positive
carcinogen call (Species: MOUSE, Strain/Sex: ICR/MALE, Route: INHALATION, Dose: 0, 10, 100 PPB 6 HR/D, 5 D/WK FOR 6 MO (STUDY DURATION: 24 MO), Dose: 0, 10, 100 PPB 6 HR/D, 5 D/WK FOR 6 MO (STUDY DURATION: 24 MO), Tumor Site: Type of Lesion: LUNG: ADENOMA OR ADENOCARCINOMA): active; positive
carcinogen call (Species: MOUSE, Strain/Sex: STRAIN-A, Route: INHALATION, Dose: 0.005 MG/L 6 HR/D, 5 D/WK FOR A TOTAL OF 82 D OVER 27 WK, Tumor Site: Type of Lesion: LUNG: ADENOMA): active; positive
carcinogen call (Species: RAT, Strain/Sex: SPRAGUE-DAWLEY/FEMALE, Route: SUBCUTANEOUS, Dose: 3 MG IN 0.1 ML NUJOL 1/WK FOR 100 D THEN 1 MG 1/WK OR 3/MO FOR 200 D, Tumor Site: Type of Lesion: INJECTION SITE: FIBROSARCOMA): active; positive
carcinogen call (Species: RAT, Strain/Sex: SPRAGUE-DAWLEY/MALE, Route: INHALATION, Dose: 0, 1, 10, 100 PPB 6 HR/D, 5 D/WK FOR 6 MO (STUDY DURATION: 19-28 MO), Dose: 0, 1, 10, 100 PPB 6 HR/D, 5 D/WK FOR 6 MO (STUDY DURATION: 19-28 MO), Tumor Site: Type of Lesion: NASAL CAVITY: ESTHESIONEUROEPITHELIOMA): active; positive
carcinogen call (Species: RAT, Strain/Sex: SPRAGUE-DAWLEY, Route: INHALATION, Dose: 0.5 MG/M3 FOR 101 EXPOSURES, Tumor Site: Type of Lesion: LUNG: SQUAMOUS CELL CARCINOMA, NASAL CAVITY: ESTHESIONEUROEPITHELIOMA): active; positive

CCn1cc(C(=O)O)c(=O)c2cc3c(cc21)OCO3
carcinogen call (Species: MOUSE, Strain/Sex: ICR/FEMALE, Route: ORAL, Dose: 0, 50, 150, 500 PPM IN DIET FOR 78 WK (STUDY DURATION: 78 WK), Dose: 0, 50, 150, 500 PPM IN DIET FOR 78 WK (STUDY DURATION: 78 WK)): inactive; negative
carcinogen call (Species: MOUSE, Strain/Sex: ICR/MALE, Route: ORAL, Dose: 0, 50, 150, 500 PPM IN DIET FOR 78 WK (STUDY DURATION: 78 WK), Dose: 0, 50, 150, 500 PPM IN DIET FOR 78 WK (STUDY DURATION: 78 WK)): inactive; negative
carcinogen call (Species: RAT, Strain/Sex: WISTAR/FEMALE, Route: ORAL, Dose: 0, 30, 100, 300, 1000 PPM IN DIET FOR 104 WK (STUDY DURATION: 104 WK), Dose: 0, 30, 100, 300, 1000 PPM IN DIET FOR 104 WK (STUDY DURATION: 104 WK)): inactive; negative
carcinogen call (Species: RAT, Strain/Sex: WISTAR/MALE, Route: ORAL, Dose: 0, 30, 100, 300, 1000 PPM IN DIET FOR 104 WK (STUDY DURATION: 104 WK), Dose: 0, 30, 100, 300, 1000 PPM IN DIET FOR 104 WK (STUDY DURATION: 104 WK), Tumor Site: Type of Lesion: TESTIS: BENIGN LEYDIG CELL TUMOR): active; positive

FC(F)OC(Cl)C(F)(F)F (stereo unspecified)
carcinogen call (Species: MOUSE, Strain/Sex: SWISS/FEMALE, Route: INHALATION, Dose: 0, 0.1, 0.4% IN AIR 4 HR/D 5 D/WK FOR 78 WK (STUDY DURATION: 81 WK), Dose: 0, 0.1, 0.4% IN AIR 4 HR/D 5 D/WK FOR 78 WK (STUDY DURATION: 81 WK)): inactive; negative
carcinogen call (Species: MOUSE, Strain/Sex: SWISS/MALE, Route: INHALATION, Dose: 0, 0.1, 0.4% IN AIR 4 HR/D 5 D/WK FOR 78 WK (STUDY DURATION: 81 WK), Dose: 0, 0.1, 0.4% IN AIR 4 HR/D 5 D/WK FOR 78 WK (STUDY DURATION: 81 WK)): inactive; negative

CCCCCCCCCN(C)N=O
carcinogen call (Species: RAT, Strain/Sex: F344/MALE, Route: GAVAGE, Dose: 0, 100 MG/ML IN CORN OIL 2/WK FOR 30 WK, STUDY DURATION: 60 WK, Dose: 0, 100 MG/ML IN CORN OIL 2/WK FOR 30 WK, STUDY DURATION: 60 WK, Tumor Site: Type of Lesion: LUNG: ADENOCARCINOMA, NASAL CAVITY: CARCINOMA, PAPILLOMA, LIVER: CHOLANGIOCARCINOMA, HEPATOCELLULAR TUMOR, Tumor Site: Type of Lesion: LUNG: ADENOCARCINOMA, NASAL CAVITY: CARCINOMA, PAPILLOMA, LIVER: CHOLANGIOCARCINOMA, HEPATOCELLULAR TUMOR): active; positive

O=c1ccc2ccccc2o1
carcinogen call (Species: MOUSE, Strain/Sex: B6C3F1/FEMALE, Route: GAVAGE, Dose: 0, 50, 100, 200 MG/KG BW IN CORN OIL 1/D 5 D/WK FOR 103 WK (STUDY DURATION: 103 WK), Dose: 0, 50, 100, 200 MG/KG BW IN CORN OIL 1/D 5 D/WK FOR 103 WK (STUDY DURATION: 103 WK), Tumor Site: Type of Lesion: LIVER: HEPATOCELLULAR ADENOMA, HEPATOCELLULAR ADENOMA OR CARCINOMA, LUNG: ALVEOLAR/BRONCHIOLAR ADENOMA, ALVEOLAR/BRONCHI): active; positive
carcinogen call (Species: MOUSE, Strain/Sex: B6C3F1/MALE, Route: GAVAGE, Dose: 0, 50, 100, 200 MG/KG BW IN CORN OIL 1/D 5 D/WK FOR 103 WK (STUDY DURATION: 103 WK), Dose: 0, 50, 100, 200 MG/KG BW IN CORN OIL 1/D 5 D/WK FOR 103 WK (STUDY DURATION: 103 WK), Tumor Site: Type of Lesion: LUNG: ALVEOLAR/BRONCHIOLAR ADENOMA, ALVEOLAR/BRONCHIOLAR ADENOMA OR CARCINOMA): active; positive
carcinogen call (Species: MOUSE, Strain/Sex: CD-1/FEMALE, Route: ORAL, Dose: 0, 300, 1000, 3000 PPM IN DIET FOR THE DURATION OF STUDY (STUDY DURATION: 109 WK), Dose: 0, 300, 1000, 3000 PPM IN DIET FOR THE DURATION OF STUDY (STUDY DURATION: 109 WK)): inactive; negative
carcinogen call (Species: MOUSE, Strain/Sex: CD-1/MALE, Route: ORAL, Dose: 0, 300, 1000, 3000 PPM IN DIET FOR THE DURATION OF STUDY (STUDY DURATION: 101 WK), Dose: 0, 300, 1000, 3000 PPM IN DIET FOR THE DURATION OF STUDY (STUDY DURATION: 101 WK)): inactive; negative
carcinogen call (Species: RAT, Route: ORAL, Tumor Site: Type of Lesion: BILE DUCT): active; positive
carcinogen call (Species: RAT, Strain/Sex: F344/FEMALE, Route: GAVAGE, Dose: 0, 25, 50, 100 MG/KG BW IN CORN OIL 1/D 5 D/WK FOR 103 WK (STUDY DURATION: 103 WK), Dose: 0, 25, 50, 100 MG/KG BW IN CORN OIL 1/D 5 D/WK FOR 103 WK (STUDY DURATION: 103 WK), Tumor Site: Type of Lesion: KIDNEY (RENAL TUBULE): ADENOMA): equivocal
carcinogen call (Species: RAT, Strain/Sex: F344/MALE, Route: GAVAGE, Dose: 0, 25, 50, 100 MG/KG BW IN CORN OIL 1/D 5 D/WK FOR 103 WK (STUDY DURATION: 103 WK), Dose: 0, 25, 50, 100 MG/KG BW IN CORN OIL 1/D 5 D/WK FOR 103 WK (STUDY DURATION: 103 WK), Tumor Site: Type of Lesion: KIDNEY (RENAL TUBULE): ADENOMA): active; positive
carcinogen call (Species: RAT, Strain/Sex: SPRAGUE-DAWLEY/FEMALE, Route: ORAL, Dose: 0, 333, 1000, 2000 PPM IN DIET FOR DURATION OF STUDY ADMINISTERED TO RATS EXPOSED TO THE SAME DOSES DURING GESTATION AND, Dose: 0, 333, 1000, 2000 PPM IN DIET FOR DURATION OF STUDY ADMINISTERED TO RATS EXPOSED TO THE SAME DOSES DURING GESTATION AND, Tumor Site: Type of Lesion: LIVER: CHOLANGIOCARCINOMA, PARENCHYMAL TUMORS): active; positive
carcinogen call (Species: RAT, Strain/Sex: SPRAGUE-DAWLEY/MALE, Route: ORAL, Dose: 0, 333, 1000, 2000 PPM IN DIET FOR DURATION OF STUDY ADMINISTERED TO RATS EXPOSED TO THE SAME DOSES DURING GESTATION AND, Dose: 0, 333, 1000, 2000 PPM IN DIET FOR DURATION OF STUDY ADMINISTERED TO RATS EXPOSED TO THE SAME DOSES DURING GESTATION AND, Tumor Site: Type of Lesion: LIVER: CHOLANGIOCARCINOMA, PARENCHYMAL TUMORS): active; positive

Nc1ccc(-c2ccccc2)cc1O
carcinogen call (Species: MOUSE, Strain/Sex: SWISS/FEMALE, Route: SUBCUTANEOUS, Dose: 0, 200 UG IN 0.02 ML 3% AQUEOUS GELATIN 1/D FOR 3 D (STUDY DURATION: 52 WK)): inactive; negative
carcinogen call (Species: MOUSE, Strain/Sex: SWISS/MALE, Route: SUBCUTANEOUS, Dose: 0, 200 UG IN 0.02 ML 3% AQUEOUS GELATIN 1/D FOR 3 D (STUDY DURATION: 52 WK), Tumor Site: Type of Lesion: LIVER: HEPATOMA): active; positive
